Test results: patent US5804603A, “Synthesized β-adrenergic blockers derivatives of guaiacol” (National Science Council, priority 1995, dated 1998)
Where two headings read alike, the source gives them in different places.

Tests used:
Water solubility = format: physicochemical
β-receptor = β-receptor (Cavia porcellus, UniProt H0W3H1); assay: Receptor binding assay, [3H]-dihydroalprenolol, heart ventricle membranes; details: for IC50: FIG. 15 and Table 4
Description: Method of receptor binding assay. After punching the heads of guinea pigs, the blood was drained and the heart ventricle immediately removed. The ventricles were placed in 10 vols. of ice-cold buffer (250 mM sucrose, 1 mM Magnesium Chloride, 50 mM Tris-HCl, pH 7.5) and all subsequent procedures were carried out at 4° C. The ventricles were homogenized using a homogenizer 3-4 times. The period of each homogenization took 15 seconds. […] The supernatant was further centrifuged at 10,000 g and the final pellet was resuspended in a small volume of 75 mM Tris buffer containing 25 mM Magnesium Chloride. The membrane protein content was determined by a protein assay dye. The receptor binding assay was initiated by incubating 100 μl of, a membrane protein solution with 50 μl of [^3 H]-dihydroalprenolol(^3 H-DHA) and the competing drugs. Additional buffer was added to increase the reaction volume up to 250 μl. The binding reaction was activated at 25° C. water by constantly shaking for 60 minutes. The binding reaction was stopped by diluting it with 1 ml of ice-cold assay buffer. The solution was then filtered on a Whatman GF/C glass fiber filter paper under vacuum suction. The filters were washed 3 times with ice-cold assay buffer and dried at 60±C. in an oven for 2 hrs. Then 4 ml of scintillation fluid was added and the radioactivity was counted on β-counter.

[1] = test system: right eye of male Wistar rats; assay: Eye wiping test (pain-producing potency); format: in vivo; details: for pain producing potency: eye drops 10^-4 to 10^-2 M, 30 min, FIG. 1
Description: The wiping test was performed as described by Szolcsanyiand, Jancso-Gabor. Briefly, the solution or suspension of the test compound and its analogs was made up in 10% ethanol, 5% Tween 80 and then diluted with saline to the required concentrations. Each solution or suspension of 10^-4 M, 10^-3 M, 10^-2 M was dropped into the right eye (vehicle being administered to the left eye as negative control) of male Wistar rats weighing 180-250 g and the total number of protective movements (scratching, wiping of the eye with the foreleg) was counted for 30 minutes. Each test was carried out with a total of 6 rats, and a dose-response curve was obtained from the mean value of each group.

[2] = test system: acetic acid-induced writhing syndrome; assay: Acetic acid-induced writhing (antinociceptive test); format: in vivo, male mice (ddk strain); details: for Protection / Writhes No. (Ave. ± S.E.): 1.25 mg/kg i.p., N = 8; for ED50: Mus musculus, ip, read-out: ED50 (95% C.I.); for Potency ratio: relative to DZ = 1.00
Description: Following the method described by Koster antinociceptive tests were carried out in male mice after intraperitoneal administration of test solution. […] The test solution was administered by intraperitoneal injection of a single dose 0.2 ml (vehicle administered as control). Twenty minutes after injection, 0.2 ml of 0.7% acetic acid was injected intraperitoneally to induce writhing.

[3] = test system: platelet aggregation induced by collagen; assay: Collagen-induced platelet aggregation in platelet rich plasma; format: cell-based; details: 10 μg/ml collagen, PRP; for IC100: Platelet, FIG. 18, read-out: concentration completely inhibiting platelet aggregation
Description: A monophasic aggregation curve was observed when 10 μg/ml of collagen was added to platelet rich plasma (PRP).

[4] = test system: heart rate and blood pressure; assay: Heart rate and blood pressure changes of rats induced by guaiacoxypropanolamines; format: in vivo
platelets = details: cited from earlier work
[5] = test system: heart rate and blood pressure; assay: Heart rate and blood pressure of anesthetized rats (i.v.); format: in vivo; details: for ED50: Rattus norvegicus, iv, read-out: ID50 : heart rate response (95% C.I.); for ED50 / ID50 : heart rate response (95% C.I.): anesthetized rats, Litchfield method; for ID50 : heart rate response (95% C.I.) / time of slightly reduced blood pressure after injection: i.v.; for time of slightly reduced blood pressure after injection: statistical significance not found
Excerpt: […]. The effect of DZN on heart rate and blood pressure were monitored.
[…]. Exp. Ther., vol. 96, 99-113). The ID50 value is the response of a β drug which produces a response in 50% of […].

intraocular pressure = details: in vivo; cited from earlier work
in vivo = details: mouse, mice, read-out: LD50 (95% C.L.)
β2 adrenergic receptor = target: T1, β2 adrenergic receptor (Rattus norvegicus, UniProt P10608); assay: Antagonism of isoproterenolol on isolated rat uterus horns; format: cell-based
T1 construct: from tissue; host or cells: rat uterus horns (isolated organ, stilbestrol and reserpine pretreated)
Description: Female rats were intraperitonealy injected with stilbestrol (1 mg/kg) to elevate the sensitivity of β2 adrenergic receptor in uterus horns. The rats were subsequently administered reserpine to deplete the catecholamine in uterus. The isolated uterus horns were treated with phenoxybenzamine to block the neuronal uptake and the interaction between neuron cells and the adrenergic receptor.

β1 adrenergic receptor [6] = target: T2, β1 adrenergic receptor (Cavia porcellus, UniProt H0W3H1); assay: Antagonism of isoproterenolol on isolated guinea pig right atrium; format: cell-based
T2 construct: isolated guinea pig right atrium; from tissue; host or cells: guinea pig right atrium (isolated organ)
Excerpt: (§1) A bath as described in Gen.
(§2) The determination of the pA2 is made from experiments in which a fixed concentration of the antagonist is used along with graded concentrations of an agonist acting on the same receptor. The presence of the antagonist shifts the agonist dose-response curve to the right.

β1 adrenergic receptor [7] = assay: as above; format: cell-based
Excerpt: as §1, §2

[8] = 10 min after dosing, 1.0 mg/kg iv, means ± SE (n = 8)
[9] = 15 min after dosing, 1.0 mg/kg iv, means ± SE (n = 8)
[10] = 30 min after dosing, 1.0 mg/kg iv, means ± SE (n = 8)
[11] = 60 min after dosing, 1.0 mg/kg iv, means ± SE (n = 8)
[12] = mice, Litchfield and Wilcoxon method

T1 sequence (P10608 whole entry): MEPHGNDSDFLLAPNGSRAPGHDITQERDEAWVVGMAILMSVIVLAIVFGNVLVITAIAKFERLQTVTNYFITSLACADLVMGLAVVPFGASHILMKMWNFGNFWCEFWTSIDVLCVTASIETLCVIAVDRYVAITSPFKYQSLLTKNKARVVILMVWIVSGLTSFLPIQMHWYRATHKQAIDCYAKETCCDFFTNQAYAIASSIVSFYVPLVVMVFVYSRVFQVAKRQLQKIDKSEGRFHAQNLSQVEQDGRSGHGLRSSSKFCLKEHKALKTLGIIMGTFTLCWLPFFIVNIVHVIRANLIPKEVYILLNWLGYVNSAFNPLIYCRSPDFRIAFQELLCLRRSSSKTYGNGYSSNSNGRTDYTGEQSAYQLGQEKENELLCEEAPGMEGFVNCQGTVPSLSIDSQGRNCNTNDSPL
T2 sequence (H0W3H1 1-470): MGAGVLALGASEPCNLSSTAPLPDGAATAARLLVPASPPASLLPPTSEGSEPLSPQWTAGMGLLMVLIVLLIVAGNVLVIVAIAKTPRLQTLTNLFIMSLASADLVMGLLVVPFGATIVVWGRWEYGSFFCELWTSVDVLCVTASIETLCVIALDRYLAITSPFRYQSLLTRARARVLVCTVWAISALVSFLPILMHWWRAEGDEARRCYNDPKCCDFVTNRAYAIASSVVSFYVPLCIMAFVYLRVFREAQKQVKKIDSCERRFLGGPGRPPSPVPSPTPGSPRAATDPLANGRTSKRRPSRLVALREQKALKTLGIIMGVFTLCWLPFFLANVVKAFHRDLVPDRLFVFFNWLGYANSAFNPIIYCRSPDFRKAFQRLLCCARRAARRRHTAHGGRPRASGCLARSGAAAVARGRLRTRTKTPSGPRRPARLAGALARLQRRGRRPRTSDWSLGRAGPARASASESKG
Sequence of β-receptor (H0W3H1 1-470): as above

In the case of `COc1cc(C=CC(C)=O)ccc1OCC(O)CNC(C)(C)C` (racemic) [DZBN, 4-[4'-(2-hydroxy-3-tert-butylaminopropoxy)-3'-methoxyphenyl]-3-buten-2-one], the water solubility (Water solubility) is reported as “watersoluble”, the EC50 (β-receptor) is reported as 3600 nM and the “IC50” value (β-receptor) is reported as “close to the IC50 values of the well known β-adrenergic agonist Atenolol”. For the same compound, the pain producing potency [1] was “lower than that of DZ and zingerone” and the pungency ([1]; rat, in vivo) was “lower pungency”.
In the case of `COc1cc(CCC(C)=O)ccc1O` [zingerone, 4-(4'-hydroxy-3'-methoxyphenyl)-3-butan-2-one, reference compound], the “antinociceptive potency relative to DZ” value [2] is reported as 3 times, the Protection [2] is reported as 71.10% and the “Writhes No. (Ave. ± S.E.)” value [2] is reported as 20.75 ± 3.40. For the same compound, the ED50 [2] was 0.25 mg/kg, the Potency ratio [2] was 1.50 and the “inhibition of collagen-induced platelet aggregation” value (shortened to “inhibition”) [3] was “dose-dependent inhibition of platelet aggregation”.
In the case of `CC(C)NCC(O)COc1cccc2ccccc12` (centres unmarked) [propranolol, reference compound], the “change in HR” value ([4]; 5 min after dosing, 1.0 mg/kg iv, means ± SE (n = 8)) is reported as -57.28 ± 5.94 beats/min, the “change in BP” value [4, 8] is reported as -6.33 ± 2.16 mmHg and the “change in HR” value [4, 8] is reported as -63.85 ± 7.18 beats/min. The “change in BP” value [4, 9] was -6.50 ± 3.26 mmHg, the “change in HR” value [4, 9] was -65.28 ± 8.43 beats/min and the “change in BP” value [4, 10] was -4.67 ± 2.66 mmHg. The “change in HR” value [4, 10] was -62.57 ± 9.06 beats/min, the “change in BP” value [4, 11] was 2.17 ± 3.29 mmHg and the “change in HR” value [4, 11] was -52.14 ± 10.93 beats/min. The “change in BP” value ([4]; iv, 1 mg/kg, 5 min) was -2.83 ± 1.81 mmHg, the “inhibition” value [3] was “dose-dependent inhibition of platelet aggregation” and the “adherence of platelets on collagen” value (platelets) was “inhibit platelet release and the adherence of platelets on collagen”. For the same compound, the platelet release (platelets) was “inhibit platelet release”, the “shape change of platelets” value (platelets) was “does not inhibit the shape change of platelets” and the “effect on isoproterenolol-induced heart rate and blood pressure changes” value ([5]; FIGS. 6(A), 6(B)) was “antagonized the effects of isoproterenolol”. The ED50 [5] was 0.14 mg/kg, the “ID50 : heart rate response (95% C.I.)” value [5] was 0.14 (0.96-0.02) mg/kg and the “time of slightly reduced blood pressure after injection” value [5] was 5 to 10 min.
For `COc1cc(CCC(C)=O)ccc1OCC(O)CNC(C)C` (racemic) [ZPN], the EC50 (β-receptor) was 11000 nM.
In the case of `COc1cc(C=CC(C)=O)ccc1OCC(O)CNC(C)(C)C` (centres unmarked) [Vaninolol], the “intraocular pressure (IOP)” value (intraocular pressure) is given as “lower the intraocular pressure (IOP)”.
With `COc1cc(C=CC(C)=O)ccc1OCC(O)CNC(C)C` (racemic) [DZN, 4-[4'-(2-hydroxy-3-isopropylaminopropoxy)-3'-methoxyphenyl]-3-buten-2-one] the LD50 (in vivo; ip) was over 1000 mg/kg, the LD50 (in vivo; po) was over 1000 mg/kg and the Protection [2] was 86.06%. For the same compound, the “Writhes No. (Ave. ± S.E.)” value [2] was 11.17 ± 2.36, the ED50 [2, 12] was 0.11 mg/kg and the Potency ratio [2] was 3.50. The “shift of isoproterenolol concentration-effect curve” value (β2 adrenergic receptor; 10^-8 -10^-6 M DZN, rat uterus horns) was “partially shift to the right”, the “slope of regression (Schild plot), β2” value (β2 adrenergic receptor; rat uterus) was 0.99±0.11 and the Kb (β2 adrenergic receptor; read-out: pA2, β2 (converted)) was 29.5 nM. For the same compound, the EC50 (β-receptor) was 1300 nM, the “IC50” value (β-receptor) was “close to the IC50 values of the well known β-adrenergic agonist Atenolol” and the “inhibition” value [3] was “dose-dependent inhibition of platelet aggregation”. The IC100 [3] was 250 µM, the “shift of isoproterenolol concentration-effect curve” value (β1 adrenergic receptor [6]; guinea pig right atrium) was “partially shifted to the right” and the “slope of regression (Schild plot), β1” value (β1 adrenergic receptor [6]; guinea-pig right atrium) was 0.96 ± 0.05. For the same compound, the Kb (β1 adrenergic receptor [6]; read-out: pA2, β1 (converted)) was 6.92 nM, the Cardioselectivity ratio (β1 adrenergic receptor [7]) was 4.26 and the ED50 [5] was 0.22 mg/kg. The duration of bradycardia ([5]; i.v. 0.1, 0.5, 1.0 mg/kg) was “over 1 hr”, the bradycardia ([5]; i.v. 0.1, 0.5, 1.0 mg/kg, FIGS. 3-6) was “dose-dependent bradycardia” and the “ID50 : heart rate response (95% C.I.)” value ([5]; listed as DZH (compound 4)) was 0.22 (1.29-0.04) mg/kg. The “time of slightly reduced blood pressure after injection” value [5] was 5 to 10 min, the “effect on blood pressure induced by isoproterenolol” value ([5]; rat, in vivo) was “lowered the blood pressure induced by isoproterenolol” and the “effect on resting heart rate” value ([5]; rat, in vivo) was “reduced resting heart rate”. The pain producing potency [1] was “lower than that of DZ and zingerone”.
For `COc1cc(C=CC(C)=O)ccc1OCC1CO1` (centres unmarked) [DZE, 4-[4'-(2,3-Epoxypropoxy)-3'-methoxyphenyl]-3-buten-2-one], the Protection [2] was 65.69%, the “Writhes No. (Ave. ± S.E.)” value [2] was 27.50 ± 3.32 and the ED50 [2, 12] was 0.23 mg/kg. The Potency ratio [2] was 1.70, the “inhibition” value [3] was “dose-dependent inhibition of platelet aggregation” and the IC100 [3] was 100 µM.
